# Source: patent US6756384B2, “Imidazole compounds” (Novo Nordisk A/S, priority 2000, dated 2004)
# Counter-ions that a name gives are not always drawn.
row,melting point [°C],SMILES
1,165 to 167,"O=C(NCc1ccccc1Cl)C1CCCc2[nH]cnc21 (centres unmarked) (as salt: hydrochloride) [Example 89, 4,5,6,7-Tetrahydro-1H-benzimidazole-4-carboxylic acid 2-chlorobenzylamide]"
2,158 to 160,C[C@H](NC(=O)C1CCc2[nH]cnc2C1)c1cccc2ccccc12 (some centres unmarked) [Example 1]
3,197 to 199,"O=C(NCc1c(Cl)cccc1Oc1ccccc1)C1CCc2[nH]cnc2C1 (centres unmarked) [Example 22, 4,5,6,7-Tetrahydro-1H-benzimidazole-5-carboxylic Acid N-(2-Chloro-6-phenoxy-benzyl)amide]"

# Second part, the compound before the results:
row,SMILES,melting point [°C]
1,C[C@@H](NC(=O)C1CCc2[nH]cnc2C1)c1cccc2ccccc12.Cl (some centres unmarked),84 to 85
2,Cl.O=C(NCc1cccc2ccccc12)C1CCc2[nH]cnc2C1 (centres unmarked),142 to 144
3,Cl.O=C(Cc1ccc(Cl)cc1)NC1CCc2[nH]cnc2C1 (centres unmarked),222 to 224
4,O=C(NCc1ccccc1)C1CCc2[nH]cnc2C1.O=C(O)C(=O)O (centres unmarked),130 to 132
5,O=C(NCCc1ccccc1)C1CCc2[nH]cnc2C1.O=C(O)C(=O)O (centres unmarked),197 to 199
6,Cl.O=C(NCCCc1ccc(Cl)cc1)C1CCc2[nH]cnc2C1 (centres unmarked),146 to 148
7,"CN(Cc1ccccc1)C(=O)C1CCCc2[nH]cnc21 (centres unmarked) (as salt: hydrochloride) [Example 90, 4,5,6,7-Tetrahydro-1H-benzimidazole-4-carboxylic acid benzylmethylamide]",211 to 213
8,"O=C(NCCc1ccccc1)C1CCCc2[nH]cnc21 (centres unmarked) (as salt: hydrochloride) [Example 91, 4,5,6,7-Tetrahydro-1H-benzimidazole-4-carboxylic acid phenethylamide]",177 to 179
